Test results from PubChem BioAssay (NCI).
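All cell lines were grown in 96-well plates and treated with compound for 48 hours. At the TGI there is no net growth.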

What follows are compounds tested on A549 NSCLC (assay: NCI anticancer screen, dose series, 48 h).

Question: Which TGI does the source give for `C[C@]12c3c4cc(NC(=O)C(=O)NCc5ccc(-c6ccccn6)nc5)cc3Oc3cc(NC(=O)C(=O)NCc5ccc(-c6ccccn6)nc5)cc(c31)OC1C=C(NC(=O)C(=O)NCc3ccc(-c5ccccn5)nc3)C=C(O4)C12` (some centres undefined) here?
Answer: The TGI was > 100 µM.

Question: `COc1ccc(C(C)NNC(=O)c2ccncc2)cc1OC` (centres undefined) was tested. Which TGI did it give?
Answer: Its TGI is > 100 µM.

Question: Which TGI does the source give for `C[C@]12[C@@H]3CC[C@H]1[C@@H](O)C(=O)N2CC3` here?
Answer: The TGI was > 100 µM.

Question: `COc1ccc(NC(=S)c2ccc(CN3CCCCC3)s2)cc1` was tested. Which TGI did it give?
Answer: Its TGI is 47.4 µM.

Question: With `O=C1C(Br)=C(Br)C(=O)c2ccc(=O)ccc21` as the compound, how does the TGI read?
Answer: The TGI was > 100 µM.

Question: With `CC(N)/C(N)=N/O` (centres undefined) as the compound, how does the TGI read?
Answer: Its TGI is > 100 µM.

Question: Which TGI does the source give for `CCOC(=O)CCC(NC(=O)C(N)Cc1ccc(N(CCCl)CCCl)cc1)C(=O)OCC` (centres undefined) here?
Answer: The TGI was > 33.4 µM.

The compounds below were run on BT-549 breast (assay: NCI anticancer screen, dose series, 48 h).

Question: `C[C@]12c3c4cc(NC(=O)C(=O)NCc5ccc(-c6ccccn6)nc5)cc3Oc3cc(NC(=O)C(=O)NCc5ccc(-c6ccccn6)nc5)cc(c31)OC1C=C(NC(=O)C(=O)NCc3ccc(-c5ccccn5)nc3)C=C(O4)C12` (some centres undefined) was tested. Which TGI did it give?
Answer: Its TGI is > 100 µM.

Question: For `COc1ccc(C(C)NNC(=O)c2ccncc2)cc1OC` (centres undefined), which TGI is on record?
Answer: The TGI was > 100 µM.

Question: `C[C@]12[C@@H]3CC[C@H]1[C@@H](O)C(=O)N2CC3` was tested. Which TGI did it give?
Answer: The TGI was > 100 µM.

Question: For `COc1ccc(NC(=S)c2ccc(CN3CCCCC3)s2)cc1`, which TGI is on record?
Answer: The TGI was 44 µM.

Question: Which TGI does the source give for `O=C1C(Br)=C(Br)C(=O)c2ccc(=O)ccc21` here?
Answer: Its TGI is 44.6 µM.

Question: Which TGI does the source give for `CC(N)/C(N)=N/O` (centres undefined) here?
Answer: The TGI was > 100 µM.

Question: `CCOC(=O)CCC(NC(=O)C(N)Cc1ccc(N(CCCl)CCCl)cc1)C(=O)OCC` (centres undefined) was tested. Which TGI did it give?
Answer: The TGI was 12.4 µM.

What follows are compounds tested on HL-60(TB) leukemia (assay: NCI anticancer screen, dose series, 48 h).

Question: `C[C@]12c3c4cc(NC(=O)C(=O)NCc5ccc(-c6ccccn6)nc5)cc3Oc3cc(NC(=O)C(=O)NCc5ccc(-c6ccccn6)nc5)cc(c31)OC1C=C(NC(=O)C(=O)NCc3ccc(-c5ccccn5)nc3)C=C(O4)C12` (some centres undefined) was tested. Which TGI did it give?
Answer: Its TGI is > 100 µM.

Question: For `COc1ccc(C(C)NNC(=O)c2ccncc2)cc1OC` (centres undefined), which TGI is on record?
Answer: Its TGI is > 100 µM.

Question: For `C[C@]12[C@@H]3CC[C@H]1[C@@H](O)C(=O)N2CC3`, which TGI is on record?
Answer: The TGI was > 100 µM.

Question: With `COc1ccc(NC(=S)c2ccc(CN3CCCCC3)s2)cc1` as the compound, how does the TGI read?
Answer: Its TGI is 31.9 µM.

Question: How did the TGI turn out when `O=C1C(Br)=C(Br)C(=O)c2ccc(=O)ccc21` was run?
Answer: The TGI was 13.7 µM.

Question: With `CC(N)/C(N)=N/O` (centres undefined) as the compound, how does the TGI read?
Answer: The TGI was > 100 µM.

Question: How did the TGI turn out when `CCOC(=O)CCC(NC(=O)C(N)Cc1ccc(N(CCCl)CCCl)cc1)C(=O)OCC` (centres undefined) was run?
Answer: The TGI was 0.586 µM.

The compounds below were run on HOP-62 NSCLC (assay: NCI anticancer screen, dose series, 48 h).

Question: With `C[C@]12c3c4cc(NC(=O)C(=O)NCc5ccc(-c6ccccn6)nc5)cc3Oc3cc(NC(=O)C(=O)NCc5ccc(-c6ccccn6)nc5)cc(c31)OC1C=C(NC(=O)C(=O)NCc3ccc(-c5ccccn5)nc3)C=C(O4)C12` (some centres undefined) as the compound, how does the TGI read?
Answer: Its TGI is > 100 µM.

Question: With `COc1ccc(C(C)NNC(=O)c2ccncc2)cc1OC` (centres undefined) as the compound, how does the TGI read?
Answer: The TGI was > 100 µM.

Question: `C[C@]12[C@@H]3CC[C@H]1[C@@H](O)C(=O)N2CC3` was tested. Which TGI did it give?
Answer: Its TGI is > 100 µM.

Question: For `COc1ccc(NC(=S)c2ccc(CN3CCCCC3)s2)cc1`, which TGI is on record?
Answer: The TGI was 52.7 µM.

Question: Which TGI does the source give for `O=C1C(Br)=C(Br)C(=O)c2ccc(=O)ccc21` here?
Answer: Its TGI is > 79.2 µM.

Question: Which TGI does the source give for `CC(N)/C(N)=N/O` (centres undefined) here?
Answer: Its TGI is > 100 µM.

Question: Which TGI does the source give for `CCOC(=O)CCC(NC(=O)C(N)Cc1ccc(N(CCCl)CCCl)cc1)C(=O)OCC` (centres undefined) here?
Answer: The TGI was 7.9 µM.

The compounds below were run on HS 578T breast (assay: NCI anticancer screen, dose series, 48 h).

Question: Which TGI does the source give for `C[C@]12c3c4cc(NC(=O)C(=O)NCc5ccc(-c6ccccn6)nc5)cc3Oc3cc(NC(=O)C(=O)NCc5ccc(-c6ccccn6)nc5)cc(c31)OC1C=C(NC(=O)C(=O)NCc3ccc(-c5ccccn5)nc3)C=C(O4)C12` (some centres undefined) here?
Answer: The TGI was > 100 µM.

Question: Which TGI does the source give for `COc1ccc(C(C)NNC(=O)c2ccncc2)cc1OC` (centres undefined) here?
Answer: Its TGI is > 100 µM.

Question: `C[C@]12[C@@H]3CC[C@H]1[C@@H](O)C(=O)N2CC3` was tested. Which TGI did it give?
Answer: The TGI was > 100 µM.

Question: With `COc1ccc(NC(=S)c2ccc(CN3CCCCC3)s2)cc1` as the compound, how does the TGI read?
Answer: The TGI was 43.8 µM.

Question: `O=C1C(Br)=C(Br)C(=O)c2ccc(=O)ccc21` was tested. Which TGI did it give?
Answer: The TGI was > 84.5 µM.

Question: How did the TGI turn out when `CC(N)/C(N)=N/O` (centres undefined) was run?
Answer: The TGI was > 100 µM.

Question: How did the TGI turn out when `CCOC(=O)CCC(NC(=O)C(N)Cc1ccc(N(CCCl)CCCl)cc1)C(=O)OCC` (centres undefined) was run?
Answer: Its TGI is 4.93 µM.

Each compound was assayed on K-562 leukemia (assay: NCI anticancer screen, dose series, 48 h).

Question: Which TGI does the source give for `C[C@]12c3c4cc(NC(=O)C(=O)NCc5ccc(-c6ccccn6)nc5)cc3Oc3cc(NC(=O)C(=O)NCc5ccc(-c6ccccn6)nc5)cc(c31)OC1C=C(NC(=O)C(=O)NCc3ccc(-c5ccccn5)nc3)C=C(O4)C12` (some centres undefined) here?
Answer: The TGI was > 100 µM.

Question: Which TGI does the source give for `COc1ccc(C(C)NNC(=O)c2ccncc2)cc1OC` (centres undefined) here?
Answer: Its TGI is > 100 µM.

Question: With `C[C@]12[C@@H]3CC[C@H]1[C@@H](O)C(=O)N2CC3` as the compound, how does the TGI read?
Answer: Its TGI is > 100 µM.

Question: `COc1ccc(NC(=S)c2ccc(CN3CCCCC3)s2)cc1` was tested. Which TGI did it give?
Answer: The TGI was 42.1 µM.

Question: `O=C1C(Br)=C(Br)C(=O)c2ccc(=O)ccc21` was tested. Which TGI did it give?
Answer: Its TGI is > 61.9 µM.

Question: With `CC(N)/C(N)=N/O` (centres undefined) as the compound, how does the TGI read?
Answer: The TGI was > 100 µM.

Question: For `CCOC(=O)CCC(NC(=O)C(N)Cc1ccc(N(CCCl)CCCl)cc1)C(=O)OCC` (centres undefined), which TGI is on record?
Answer: Its TGI is 12.7 µM.

These compounds were tested on LOX IMVI melanoma (assay: NCI anticancer screen, dose series, 48 h).

Question: Which TGI does the source give for `C[C@]12c3c4cc(NC(=O)C(=O)NCc5ccc(-c6ccccn6)nc5)cc3Oc3cc(NC(=O)C(=O)NCc5ccc(-c6ccccn6)nc5)cc(c31)OC1C=C(NC(=O)C(=O)NCc3ccc(-c5ccccn5)nc3)C=C(O4)C12` (some centres undefined) here?
Answer: The TGI was 70.4 µM.

Question: `COc1ccc(C(C)NNC(=O)c2ccncc2)cc1OC` (centres undefined) was tested. Which TGI did it give?
Answer: The TGI was > 100 µM.

Question: Which TGI does the source give for `C[C@]12[C@@H]3CC[C@H]1[C@@H](O)C(=O)N2CC3` here?
Answer: The TGI was > 100 µM.

Question: `COc1ccc(NC(=S)c2ccc(CN3CCCCC3)s2)cc1` was tested. Which TGI did it give?
Answer: Its TGI is 33.3 µM.

Question: For `O=C1C(Br)=C(Br)C(=O)c2ccc(=O)ccc21`, which TGI is on record?
Answer: Its TGI is 41.2 µM.

Question: For `CC(N)/C(N)=N/O` (centres undefined), which TGI is on record?
Answer: The TGI was > 100 µM.

Question: How did the TGI turn out when `CCOC(=O)CCC(NC(=O)C(N)Cc1ccc(N(CCCl)CCCl)cc1)C(=O)OCC` (centres undefined) was run?
Answer: The TGI was 1.63 µM.

Each compound was assayed on MCF7 breast (assay: NCI anticancer screen, dose series, 48 h).

Question: `C[C@]12c3c4cc(NC(=O)C(=O)NCc5ccc(-c6ccccn6)nc5)cc3Oc3cc(NC(=O)C(=O)NCc5ccc(-c6ccccn6)nc5)cc(c31)OC1C=C(NC(=O)C(=O)NCc3ccc(-c5ccccn5)nc3)C=C(O4)C12` (some centres undefined) was tested. Which TGI did it give?
Answer: The TGI was > 100 µM.

Question: Which TGI does the source give for `COc1ccc(C(C)NNC(=O)c2ccncc2)cc1OC` (centres undefined) here?
Answer: The TGI was > 100 µM.

Question: For `C[C@]12[C@@H]3CC[C@H]1[C@@H](O)C(=O)N2CC3`, which TGI is on record?
Answer: The TGI was > 100 µM.

Question: `COc1ccc(NC(=S)c2ccc(CN3CCCCC3)s2)cc1` was tested. Which TGI did it give?
Answer: The TGI was 33.3 µM.

Question: With `O=C1C(Br)=C(Br)C(=O)c2ccc(=O)ccc21` as the compound, how does the TGI read?
Answer: Its TGI is 37.4 µM.

Question: With `CC(N)/C(N)=N/O` (centres undefined) as the compound, how does the TGI read?
Answer: Its TGI is > 100 µM.

Question: For `CCOC(=O)CCC(NC(=O)C(N)Cc1ccc(N(CCCl)CCCl)cc1)C(=O)OCC` (centres undefined), which TGI is on record?
Answer: Its TGI is 9.5 µM.

These compounds were tested on MDA-MB-435 (assay: NCI anticancer screen, dose series, 48 h).

Question: Which TGI does the source give for `C[C@]12c3c4cc(NC(=O)C(=O)NCc5ccc(-c6ccccn6)nc5)cc3Oc3cc(NC(=O)C(=O)NCc5ccc(-c6ccccn6)nc5)cc(c31)OC1C=C(NC(=O)C(=O)NCc3ccc(-c5ccccn5)nc3)C=C(O4)C12` (some centres undefined) here?
Answer: The TGI was > 100 µM.

Question: For `COc1ccc(C(C)NNC(=O)c2ccncc2)cc1OC` (centres undefined), which TGI is on record?
Answer: Its TGI is > 100 µM.

Question: Which TGI does the source give for `C[C@]12[C@@H]3CC[C@H]1[C@@H](O)C(=O)N2CC3` here?
Answer: Its TGI is > 100 µM.
